Data on 2 compounds can be found in patent publication US20030220521A1, “Renal-selective prodrugs for control of renal sympathetic nerve activity in the treatment of hypertension” (G.D. Searle & Co., priority 1989, published 2003).

In data set [1] the test system is spontaneously hypertensive rats. Kind of data set: Assay II: chronic i.v. infusion, mean arterial pressure in spontaneously hypertensive rats (Ex. #3). Type of data set: in vivo, rat. Conditions: SHR, continuous infusion 5 mg/hr. The procedure:
The Ex. #3 conjugate and saline vehicle were infused continuously for four days in spontaneously hypertensive rats. Mean arterial pressure was measured (Gould Chart Recorder, model 3800; Statham P23Db pressure transducer) via an indwelling femoral artery catheter between 10:00 a.m. and 2:00 p.m. each day. The Ex. #3 conjugate was infused at 5 mg/hr and the saline vehicle was infused at 300 μL,/hr. via a jugular vein catheter with a Harvard infusion pump.

Another data set concerns Sprague-Dawley rats. Briefly: Assay I: acute in vivo effects on mean arterial pressure and renal blood flow, anesthetized rats. Conditions: for MAP / RBF: 100 mg/kg i.v. The arrangement: species or system rat. The procedure: Sprague-Dawley rats were anesthetized with inactin (100 mg/kg, i.p.) and catheters were implanted into a carotid artery for measurement of mean arterial pressure (Gould model 3800 chart recorder; Statham pressure transducer model no. P23DB) and into a jugular vein for compound administrations (i.v.). In addition, a flow probe was implanted around the left renal artery for measurement of renal blood flow using Carolina Medical Electronics flow probes. Rats were allowed 60 min to stabilize before 10 minutes of control recordings of mean arterial pressure and renal blood flow were obtained. Control measurements were followed by intravenous injection of Ex. #3 conjugate and saline vehicle.

Where a name gives a salt, the structure may show the parent alone.

For the compound `CCCCc1ccc(C(=O)NCCNC(=O)CCC(NC(C)=O)C(=O)O)nc1` (as salt: salt) [Ex. #861, N^2-acetyl-N-[2-[[(5-butyl-2-pyridinyl)carbonyl]amino]ethyl]-L-glutamine], the melting point (usually the temperature of the solid-liquid transition) was 156 to 158 °C.

As to `CC(=O)NC(CCC(=O)N[C@@](C)(Cc1ccc(O)cc1)C(=O)O)C(=O)O` (stereo partly drawn) [Ex. #3, N-[4-(acetylamino)-4-carboxy-1-oxobutyl]-α-methyl-L-tyrosine], the MAP in data set [1] (day 1) amounted to 175 ± 5 mm Hg; in data set [1] (day 2), 174 ± 5 mm Hg; in data set [1] (day 3), 172 ± 2 mm Hg; in data set [1] (day Zero), 164 ± 3 mm Hg; in the data set on Sprague-Dawley rats (15 min after injection) it was 77 ± 5 mm Hg; in the data set with Sprague-Dawley rats (30 min after injection), 73 ± 4 mm Hg. The MAP worked out at 70 ± 2 mm Hg with Sprague-Dawley rats (45 min after injection), 71 ± 6 mm Hg in the data set with Sprague-Dawley rats (60 min after injection) and 76 ± 5 mm Hg with Sprague-Dawley rats (time after injection Zero min). Besides, the RBF with Sprague-Dawley rats (15 min after injection) amounted to 7.1 ± 0.1 mL/min; in the data set on Sprague-Dawley rats (30 min after injection), 6.2 ± 0.3 mL/min; in the data set on Sprague-Dawley rats (45 min after injection), 5.9 ± 0.1 mL/min; in the data set with Sprague-Dawley rats (60 min after injection), 5.9 ± 0.1 mL/min; with Sprague-Dawley rats (time after injection Zero min), 4.8 ± 0.8 mL/min. In addition, the “acute effect on mean arterial pressure (MAP)” value in the data set with Sprague-Dawley rats (i.v. injection) is “no acute effects”. Moreover, the “acute effect on renal blood flow (RBF)” value with Sprague-Dawley rats (i.v. injection) is “increased renal blood flow”.
